# Assay results taken from US20080287469A1, “Phosphoinositide 3-Kinase Inhibitors for Inhibiting Leukocyte Accumulation” (priority 2005, published 2008).
# What was measured:
# PKCβII = PKCβII (Homo sapiens, UniProt P05771); conditions: inhibitor 10 μM; reported by Sadhu et al.; cited from earlier work
# TNFα-stimulated HUVECs = assay: Neutrophil tethering to TNFα-stimulated HUVECs, parallel plate flow chamber; format: cell-based, human; conditions: for reduction of neutrophil tethering to HUVECs pre-incubated with inhibitor: 2 μM, vs vehicle
# Experimental: First, the effect of inhibiting PI3Kδ in endothelial cells was examined. Human umbilical vein endothelial cells (HUVECs) (3-4 passages; Cambrex Inc., East Rutherford, N.J.) grown on fibronectin-coated glass cover slips were pretreated with an inhibitor in accordance with the invention (2 μM) or vehicle control for 1 hour prior to being stimulated with TNFα (5 ng/ml, 4 h). Stimulation with TNFα induces expression of E-selectin by the endothelial cells. Peripheral blood neutrophils from healthy volunteers were isolated from whole blood by dextran sedimentation followed by density separation over Ficoll-Hypaque and hypotonic lysis. Approval was obtained from the Washington University Institutional Review Board for these studies. Informed consent was provided according to the Declaration of Helsinki. […] In additional experiments where leukocytes were pre-treated with an inhibitor of the invention as described above, the HUVECS were pre-incubated with mAb CL3 (50 μg/ml, 15 min) to block E-selectin binding. […] Endothelial cells therefore recruit leukocytes at least in part through selectins.
# [1] = test system: neutrophils on TNFα-inflamed venular endothelium of the cremaster muscle; assay: Intravital microscopy of TNFα-inflamed cremaster muscle venules, GFP+/− mice; format: in vivo
# Text: To determine if PI3Kδ contributes to leukocyte accumulation in inflamed tissues, the ability of leukocytes to interact with cytokine-stimulated endothelial cells in microvessels in the cremaster muscle of mice and to transmigrate was examined. Animals heterozygous for GFP expression under the murine lysozyme M locus control, which rendered neutrophils and other granulocytes visible by epifluorescence intravital microscopy, were used to quantitate leukocyte interactions with the vessel wall.
# Mice in which green fluorescent protein (GFP) was knocked into the lysozyme M locus or the PI3Kδ catalytic subunit was deleted were generated as previously described [Faust et al., Blood, 96:719-726 (2000); and, Clayton et al., J. Exp. Med., 196:753-763 (2002)]. Subsequent matings were performed to yield mice that were heterozygous for GFP expression but deficient in PI3Kδ expression (mixed 129/Sv-C57BL/6 background) (GFP^+/−/PI3Kδ^−/− animals). All animals were handled in accordance with policies administered by institutional Animal Care and Use Committees.
# The surgical preparation of animals for all in vivo studies was performed using standard techniques [see, e.g., Coxon, Immunity, 5:653-666 (1996)]. The cremaster muscle (CM) in GFP^+/− or GFP^+/−/PI3Kδ^−/− animals was inflamed with an intrascrotal injection of murine recombinant TNFα (20 ng/mouse). 2.5 hours after TNFα injection, the tissue was surgically exposed and positioned over a circular glass coverslip (25 mm) on a custom-built plexiglass stage for viewing. The stage was then placed on an intravital microscope (IV-500; Mikron instruments, San Diego, Calif.) equipped with a silicon-intensified camera (VE1000SIT; Dage mti, Michigan City, Ind.) and the tissue kept moist by superfusion with thermo-controled (37° C.) bicarbonate-buffered saline. GFP-expressing cells (predominantly neutrophils, also including fewer monocytes) were visualized through X20 or X40 water immersion objectives (Acroplan, Carl Zeiss Inc.) by epifluorescence from a Xenon arc stroboscope (Chadwick Helmuth, El Monte, Calif.) as they passed through the venous microcirculation of the cremaster muscle. Rolling fraction was defined as the percentage of cells that interact with a given venule in the total number of cells that enter that venule during the same time period. The sticking fraction was defined as the number of rolling cells that became stationary for >30 s post-superfusion of the CM with LTB4 (0.1 μM). Venular shear rates were determined from optical Doppler velocimeter measurements of centerline erythrocyte velocity. The extent of leukocyte transmigration was evaluated at 30 and 60 min after application of LTB4. Video images were recorded using a Hi8 VCR (Sony, Boston, Mass.), and analysis of performed using a PC-based image analysis system [Doggett et al., Biophys. J., 83:194-205 (2002)].
# In order for leukocyte transmigration to occur, engagement of the leukocyte integrins with ICAMs expressed on venular endothelium (“firm adhesion”) is necessary for leukocytes to stably adhere to the vessel wall (in addition to the requirement for selectin-mediated tethering and rolling) [Dunne et al., Blood, 99:336-341 (2002)]. To determine the role of PI3Kδ in firm adhesion, the ability of leukocytes rolling on inflamed venular endothelium to undergo integrin-mediated firm adhesion in response to an activating stimulus was investigated in vivo.
# These experiments were performed in accordance with the procedures described in Example 2.
# PDK1 [2] = target: PDK1 (Homo sapiens, UniProt O15530); assay: Protein kinase/phosphatase panel: PDK1; format: biochemical; conditions: inhibitor 10 μM; 100 μM ATP
# Sequence of PDK1 (Homo sapiens, UniProt O15530) (O15530 whole entry): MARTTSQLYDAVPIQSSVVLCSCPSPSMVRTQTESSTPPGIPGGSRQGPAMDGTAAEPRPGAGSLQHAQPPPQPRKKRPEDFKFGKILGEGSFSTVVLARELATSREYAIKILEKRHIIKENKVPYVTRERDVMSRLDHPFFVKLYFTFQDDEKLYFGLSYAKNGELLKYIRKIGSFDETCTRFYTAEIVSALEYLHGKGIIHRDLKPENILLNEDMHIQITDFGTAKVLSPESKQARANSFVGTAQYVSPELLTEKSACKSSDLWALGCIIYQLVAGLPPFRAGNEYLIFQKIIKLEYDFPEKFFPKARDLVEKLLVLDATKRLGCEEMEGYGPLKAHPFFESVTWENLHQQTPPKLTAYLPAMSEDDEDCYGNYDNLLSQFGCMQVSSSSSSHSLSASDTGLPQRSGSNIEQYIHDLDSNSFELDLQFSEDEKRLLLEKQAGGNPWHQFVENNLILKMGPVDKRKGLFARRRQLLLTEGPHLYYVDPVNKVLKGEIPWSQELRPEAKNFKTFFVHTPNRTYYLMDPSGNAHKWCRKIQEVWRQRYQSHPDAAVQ
# ZAP-70 = ZAP-70 (Homo sapiens, UniProt P43403); assay: Protein kinase/phosphatase panel: ZAP-70; format: biochemical; conditions: inhibitor 10 μM; 100 μM ATP
# Sequence of ZAP-70 (P43403 whole entry, species assumed): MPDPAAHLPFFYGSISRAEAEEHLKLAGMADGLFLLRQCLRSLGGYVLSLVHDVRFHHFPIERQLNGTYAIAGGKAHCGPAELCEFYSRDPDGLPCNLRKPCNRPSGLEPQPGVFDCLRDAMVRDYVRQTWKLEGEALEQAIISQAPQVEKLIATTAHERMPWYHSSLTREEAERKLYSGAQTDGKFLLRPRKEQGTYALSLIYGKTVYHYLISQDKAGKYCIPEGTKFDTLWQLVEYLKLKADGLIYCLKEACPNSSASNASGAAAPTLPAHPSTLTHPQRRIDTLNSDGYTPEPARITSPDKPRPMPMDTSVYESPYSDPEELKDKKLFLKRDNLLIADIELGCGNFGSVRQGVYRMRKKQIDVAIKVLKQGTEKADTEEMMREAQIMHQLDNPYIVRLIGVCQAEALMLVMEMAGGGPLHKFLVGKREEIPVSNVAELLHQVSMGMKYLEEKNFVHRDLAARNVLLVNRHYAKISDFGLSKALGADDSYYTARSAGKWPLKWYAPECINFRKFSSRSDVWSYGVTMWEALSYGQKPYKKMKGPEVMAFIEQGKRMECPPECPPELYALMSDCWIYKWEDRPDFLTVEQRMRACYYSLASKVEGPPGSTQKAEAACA
# CK1 = conditions: inhibitor 10 μM; reported by Sadhu et al.; cited from earlier work
# PDK1 [3] = assay: Activity of PDK1 immunoprecipitated from TNFα-stimulated HUVECs; format: cell-based, human; conditions: incubation of intact HUVECs with compound
# Text: Thus, PI3Kδ activity is required for PDK1 and Akt function in endothelium as previously described for neutrophils.
# PKCα = PKCα (Homo sapiens, UniProt P17252); conditions: inhibitor 10 μM; reported by Sadhu et al.; cited from earlier work
# [4] = target: CD45 tyrosine phosphatase (Homo sapiens, UniProt P08575); assay: Protein kinase/phosphatase panel: CD45 tyrosine phosphatase; format: biochemical; conditions: inhibitor 10 μM
# Sequence of CD45 tyrosine phosphatase (P08575 26-1306): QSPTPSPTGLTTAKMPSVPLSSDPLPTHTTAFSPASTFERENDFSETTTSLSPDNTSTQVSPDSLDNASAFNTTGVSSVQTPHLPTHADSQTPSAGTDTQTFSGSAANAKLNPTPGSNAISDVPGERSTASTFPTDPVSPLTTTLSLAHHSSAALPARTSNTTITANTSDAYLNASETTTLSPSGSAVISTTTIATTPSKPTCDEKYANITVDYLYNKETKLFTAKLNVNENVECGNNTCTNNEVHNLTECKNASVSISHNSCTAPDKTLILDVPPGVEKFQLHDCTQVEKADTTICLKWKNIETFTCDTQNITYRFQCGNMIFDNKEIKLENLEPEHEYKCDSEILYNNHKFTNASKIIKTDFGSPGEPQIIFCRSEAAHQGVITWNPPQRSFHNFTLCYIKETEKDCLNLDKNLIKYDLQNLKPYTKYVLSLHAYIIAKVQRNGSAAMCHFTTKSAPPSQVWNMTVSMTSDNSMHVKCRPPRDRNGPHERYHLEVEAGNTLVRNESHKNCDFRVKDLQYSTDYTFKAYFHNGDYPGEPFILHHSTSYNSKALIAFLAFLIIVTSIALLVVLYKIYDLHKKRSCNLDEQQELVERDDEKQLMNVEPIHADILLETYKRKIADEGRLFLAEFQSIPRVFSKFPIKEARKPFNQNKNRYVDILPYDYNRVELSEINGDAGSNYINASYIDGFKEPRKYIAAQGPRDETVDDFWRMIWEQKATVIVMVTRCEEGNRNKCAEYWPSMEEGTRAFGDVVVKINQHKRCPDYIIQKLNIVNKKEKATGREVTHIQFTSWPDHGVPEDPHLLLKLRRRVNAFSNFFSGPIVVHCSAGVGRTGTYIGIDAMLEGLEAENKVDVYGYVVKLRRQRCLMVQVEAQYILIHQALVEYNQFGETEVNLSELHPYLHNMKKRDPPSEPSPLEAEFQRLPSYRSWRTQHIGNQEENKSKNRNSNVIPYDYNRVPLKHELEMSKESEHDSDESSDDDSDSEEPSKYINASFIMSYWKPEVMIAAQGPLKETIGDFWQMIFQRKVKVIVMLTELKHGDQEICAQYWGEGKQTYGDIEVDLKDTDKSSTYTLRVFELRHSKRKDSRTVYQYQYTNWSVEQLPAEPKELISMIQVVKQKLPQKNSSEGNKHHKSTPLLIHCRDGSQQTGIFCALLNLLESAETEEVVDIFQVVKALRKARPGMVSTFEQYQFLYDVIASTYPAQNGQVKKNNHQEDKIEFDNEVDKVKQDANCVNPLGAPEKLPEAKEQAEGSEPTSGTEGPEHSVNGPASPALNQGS
# ICAM-1 = assay: LTB4-triggered firm adhesion of neutrophils to CHO cells transfected with human ICAM-1; format: cell-based; conditions: 2 μM; LTB4 0.1 μM; wall shear stresses 2 and 4 dyn/cm^2
# Experimental: Purified neutrophils (2×10^6/ml in HBSS buffer containing 2 mM MgCl2) were incubated with 2 μM of a compound in accordance with the invention prior to conducting the adhesion assays. […] Treated neutrophils were then stimulated with LTB4 (0.1 μM) and allowed to bind in stasis to CHO cells transfected with human ICAM-1 before subjecting them to physiological wall shear stresses of 2 and 4 dyn/cm^2. ICAM-1 expression on these cells was confirmed by flow cytometry using mAb R 1/1 (fluorescence intensity>103, data not shown). […] For example, more than 80% of LTB4-stimulated neutrophils remained bound to the ICAM-1 substrate in the presence or absence of an inhibitor in accordance with the invention. The percentage of cells that remained adherent after 20 seconds (s) at each wall shear stress was determined by off-line video analysis.
# p38 MAPK = p38 MAPK (Homo sapiens, UniProt Q16539); conditions: inhibitor 10 μM; reported by Sadhu et al.; cited from earlier work
# Sequence of p38 MAPK (Q16539 whole entry): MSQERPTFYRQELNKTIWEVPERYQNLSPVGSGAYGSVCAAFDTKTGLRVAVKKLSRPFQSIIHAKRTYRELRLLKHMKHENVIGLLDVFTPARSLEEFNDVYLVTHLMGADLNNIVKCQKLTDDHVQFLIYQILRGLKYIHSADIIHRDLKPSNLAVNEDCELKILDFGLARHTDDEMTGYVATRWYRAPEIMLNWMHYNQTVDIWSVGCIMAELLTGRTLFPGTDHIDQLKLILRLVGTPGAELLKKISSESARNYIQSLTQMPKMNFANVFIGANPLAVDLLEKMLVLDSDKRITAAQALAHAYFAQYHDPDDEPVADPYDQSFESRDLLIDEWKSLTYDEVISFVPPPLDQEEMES
# Sequence of PKCβII (P05771 1-673 isoform P05771-2): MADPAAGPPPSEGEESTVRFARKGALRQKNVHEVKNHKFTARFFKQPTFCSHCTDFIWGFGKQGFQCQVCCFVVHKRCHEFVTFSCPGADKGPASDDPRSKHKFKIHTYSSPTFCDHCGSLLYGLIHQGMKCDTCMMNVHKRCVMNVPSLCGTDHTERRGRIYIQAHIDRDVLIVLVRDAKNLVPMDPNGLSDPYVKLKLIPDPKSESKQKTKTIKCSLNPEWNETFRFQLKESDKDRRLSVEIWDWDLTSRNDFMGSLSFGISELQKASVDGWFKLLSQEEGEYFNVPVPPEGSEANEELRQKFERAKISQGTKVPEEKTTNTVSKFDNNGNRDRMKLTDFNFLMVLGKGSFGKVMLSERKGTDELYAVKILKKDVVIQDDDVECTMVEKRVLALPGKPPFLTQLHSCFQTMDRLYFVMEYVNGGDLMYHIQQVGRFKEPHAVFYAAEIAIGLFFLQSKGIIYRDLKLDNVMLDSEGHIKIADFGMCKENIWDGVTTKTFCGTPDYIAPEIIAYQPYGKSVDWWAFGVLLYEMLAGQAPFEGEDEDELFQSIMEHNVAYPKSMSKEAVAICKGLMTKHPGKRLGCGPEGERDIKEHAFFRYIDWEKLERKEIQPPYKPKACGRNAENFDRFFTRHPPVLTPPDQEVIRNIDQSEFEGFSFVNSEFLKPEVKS
smiles,measurement,setting,value
Cc1ccccc1-n1c(Cn2cnc3c(N)ncnc32)nc2cccc(C)c2c1=O,Activity (% of control) ± SD,PKCβII,No inhibition*
same,reduction of neutrophil tethering to HUVECs pre-incubated with inhibitor,TNFα-stimulated HUVECs; wall shear rate 100 s^−1,28%
same,reduction of neutrophil tethering to HUVECs pre-incubated with inhibitor,TNFα-stimulated HUVECs; wall shear rate 300 s^−1,40%
same,neutrophil tethering after treatment of neutrophils (not HUVECs) with inhibitor,"TNFα-stimulated HUVECs; identical concentration (2 μM), HUVEC pre-treated with only TNFα",did not reduce neutrophil tethering
same,mean rolling velocities of neutrophils on TNFα-inflamed venules,[1]; GFP+/− animals,40.5±12.5 μm/s
same,LTB4-induced migration of neutrophils across inflamed microvessels,[1]; LTB4 superfusion of cremaster muscle,diminished
same,integrin-mediated firm adhesion of rolling leukocytes in vivo,[1]; inflamed cremaster muscle superfused with LTB4,rapidly transitioned from rolling to firm adhesion
same,time the majority of neutrophils rolled before releasing from the vessel wall,[1]; inhibitor-treated GFP+/− animals,< 2 s
same,interactions between circulating granulocytes and venular endothelium,"[1]; oral, one hour prior to intrascrotal TNFα, GFP+/− animals, vs vehicle",significantly impaired
same,decrease in the number of fluorescent cells that attach and roll,[1]; vs vehicle treated mice,> 50%
same,Activity (% of control) ± SD,PDK1 [2],91.5 ± 2.1 % of control
same,Activity (% of control) ± SD,ZAP-70,97.5 ± 13.4 % of control
same,Activity (% of control) ± SD,CK1,No inhibition*
same,kinase activity of PDK1 in response to TNFα,PDK1 [3],reduced the kinase activity
same,Activity (% of control) ± SD,PKCα,No inhibition*
same,Activity (% of control) ± SD,[4],104 ± 2.2 % of control
same,LTB4-stimulated neutrophils remaining bound to the ICAM-1 substrate,ICAM-1,more than 80%
same,Activity (% of control) ± SD,p38 MAPK,No inhibition*
